Source: patent publication US10738040B2, “Compounds, compositions, and methods for increasing CFTR activity” (Proteostasis Therapeutics, Inc., priority 2014, dated 2020)

Molecular target: T1, ΔF508-CFTR (Homo sapiens, UniProt P13569, DEL508-508)
T1 construct: Primary lung epithelial cells homozygous for the Cystic Fibrosis-causing ΔF508 mutation were differentiated; endogenous in cells; host or cells: primary human lung (bronchial) epithelial cells homozygous for ΔF508, differentiated at air-liquid interface
Assay: hBE equivalent current (Ieq) assay
Assay type: cell-based
Conditions: compound at 10 uM and VX-809 at 1 uM, relative to VX-809 (1 uM); primary lung epithelial cells homozygous for ΔF508, 24 hours treatment; AUC of equivalent chloride current
Experimental: ii. hBE Equivalent Current (Ieq) Assay
Primary lung epithelial cells homozygous for the Cystic Fibrosis-causing ΔF508 mutation were differentiated for a minimum of 4 weeks in an air-liquid interface on Costar 24 well HTS filter plates prior to the equivalent current (Ieq) measurements. Cells were apically mucus-washed for 30 minutes 24 h prior to treatment with compounds. The basolateral media was removed and replaced with media containing the compound of interest diluted to its final concentration from DMSO stocks. Treated cells were incubated at 37° C. and 5% CO2 for 24 hours. At the end of the treatment period, the media was changed to the Ieq experimental solution for 30 minutes before the experiment and plates are maintained in a CO2-free incubator during this period. The plates containing the cells were then placed in pre-warmed heating blocks at 36° ° C.±0.5 for 15 minutes before measurements are taken. The transepithelial voltage (VT) and conductance (GT) were measured using a custom 24 channel current clamp (TECC-24) with 24 well electrode manifold. The Ieq assay measurements were made following additions with standardized time periods: • 1. The baseline VT and GT values were measured for approximately 20 minutes. • 2. Benzamil was added to block ENaC for 15 minutes. • 3. Forskolin plus VX-770 (ivacaftor) were added to maximally activate ΔF508-CFTR for 27 minutes. • 4. Bumetanide was added to inhibit the NaK2Cl cotransporter and shut-off secretion of chloride.
The activity data captured was the area under the curve (AUC) for the traces of the equivalent chloride current. The AUC was collected from the time of the forskolin/VX-770 addition until the inhibition by bumetanide addition. Correction in response to compound treatment was scored as the increase in the AUC for compound-treated samples over that of vehicle-treated samples.

T1 sequence (P13569 with tags, fused parts or gaps DEL508-508): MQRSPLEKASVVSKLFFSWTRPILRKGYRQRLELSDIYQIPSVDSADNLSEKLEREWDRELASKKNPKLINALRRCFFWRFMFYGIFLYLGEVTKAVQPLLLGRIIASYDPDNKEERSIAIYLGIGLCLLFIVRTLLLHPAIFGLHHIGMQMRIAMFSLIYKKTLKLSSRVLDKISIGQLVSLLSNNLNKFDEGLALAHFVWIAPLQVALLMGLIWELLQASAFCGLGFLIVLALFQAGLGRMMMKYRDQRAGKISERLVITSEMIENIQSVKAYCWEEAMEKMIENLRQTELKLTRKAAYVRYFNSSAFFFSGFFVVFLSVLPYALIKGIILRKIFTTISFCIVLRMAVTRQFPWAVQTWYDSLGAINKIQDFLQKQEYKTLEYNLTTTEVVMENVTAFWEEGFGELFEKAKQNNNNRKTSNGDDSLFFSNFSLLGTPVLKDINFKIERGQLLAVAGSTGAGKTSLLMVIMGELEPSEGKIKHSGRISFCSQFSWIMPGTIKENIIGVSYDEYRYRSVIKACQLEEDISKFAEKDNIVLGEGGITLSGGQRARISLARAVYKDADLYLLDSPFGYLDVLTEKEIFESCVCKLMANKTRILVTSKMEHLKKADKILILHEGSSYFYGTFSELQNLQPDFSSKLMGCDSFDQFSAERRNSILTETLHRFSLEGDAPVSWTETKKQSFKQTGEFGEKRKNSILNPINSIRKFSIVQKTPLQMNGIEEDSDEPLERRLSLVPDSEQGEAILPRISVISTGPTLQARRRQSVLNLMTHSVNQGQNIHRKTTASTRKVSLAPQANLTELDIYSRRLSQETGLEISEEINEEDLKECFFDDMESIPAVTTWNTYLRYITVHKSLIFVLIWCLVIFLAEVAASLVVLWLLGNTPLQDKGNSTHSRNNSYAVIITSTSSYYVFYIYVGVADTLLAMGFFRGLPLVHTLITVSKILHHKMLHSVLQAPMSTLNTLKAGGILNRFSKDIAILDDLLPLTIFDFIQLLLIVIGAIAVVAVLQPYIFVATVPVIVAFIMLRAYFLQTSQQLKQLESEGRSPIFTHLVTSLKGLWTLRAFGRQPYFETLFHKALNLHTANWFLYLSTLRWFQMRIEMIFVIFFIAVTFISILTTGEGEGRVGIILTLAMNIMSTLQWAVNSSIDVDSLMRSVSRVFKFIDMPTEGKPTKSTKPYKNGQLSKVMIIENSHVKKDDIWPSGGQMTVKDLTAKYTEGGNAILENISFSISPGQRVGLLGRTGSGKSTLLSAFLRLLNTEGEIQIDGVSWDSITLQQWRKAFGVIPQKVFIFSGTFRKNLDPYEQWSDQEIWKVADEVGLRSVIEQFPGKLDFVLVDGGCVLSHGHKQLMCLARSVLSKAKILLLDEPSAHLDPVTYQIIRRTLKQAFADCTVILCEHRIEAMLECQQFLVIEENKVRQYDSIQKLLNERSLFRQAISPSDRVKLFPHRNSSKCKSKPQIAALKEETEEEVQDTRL

SMILES | Ieq (% VX-809)
C[C@H](O)c1cn([C@H]2C[C@H](NC(=O)c3cc(-c4ccccc4)on3)C2)nn1 | ** (activity ≥200% of VX-809 (1 uM) with compound at 10 uM and VX-809 at 1 uM)
C[C@@H](O)c1cn([C@H]2C[C@H](NC(=O)c3cc(-c4ccccc4)on3)C2)nn1 | ** (activity ≥200% of VX-809 (1 uM) with compound at 10 uM and VX-809 at 1 uM)
C[C@H](O)c1nnc(C[C@H]2C[C@@H](NC(=O)c3cc(-c4ccccc4)on3)C2)s1 | ** (activity ≥200% of VX-809 (1 uM) with compound at 10 uM and VX-809 at 1 uM)
C[C@@H](O)c1nnc(C[C@H]2C[C@@H](NC(=O)c3cc(-c4ccccc4)on3)C2)s1 | ** (activity ≥200% of VX-809 (1 uM) with compound at 10 uM and VX-809 at 1 uM)
O=C(N[C@H]1C[C@@H](c2nnc(CO)o2)C1)c1cc(-c2ccccc2)on1 | ** (activity ≥200% of VX-809 (1 uM) with compound at 10 uM and VX-809 at 1 uM)
O=C(N[C@H]1C[C@@H](c2nnc([C@@H](O)CO)s2)C1)c1cc(-c2ccccc2)on1 | ** (activity ≥200% of VX-809 (1 uM) with compound at 10 uM and VX-809 at 1 uM)
O=C(N[C@H]1C[C@H](n2cc(CO)cn2)C1)c1cc(-c2ccccc2)on1 | * (activity 100-200% of VX-809 (1 uM) with compound at 10 uM and VX-809 at 1 uM)
C[C@@H](O)c1cnn([C@H]2C[C@H](NC(=O)c3cc(-c4ccccc4)on3)C2)c1 | ** (activity ≥200% of VX-809 (1 uM) with compound at 10 uM and VX-809 at 1 uM)
C[C@H](O)c1cnn([C@H]2C[C@H](NC(=O)c3cc(-c4ccccc4)on3)C2)c1 | ** (activity ≥200% of VX-809 (1 uM) with compound at 10 uM and VX-809 at 1 uM)
O=C(NC1CC(n2cc(CO)cn2)C1)c1cc(-c2ccccc2)on1 (centres unmarked) | ** (activity ≥200% of VX-809 (1 uM) with compound at 10 uM and VX-809 at 1 uM)
O=C(N[C@H]1C[C@H](n2ccc(CO)n2)C1)c1cc(-c2ccccc2)on1 | ** (activity ≥200% of VX-809 (1 uM) with compound at 10 uM and VX-809 at 1 uM)
C[C@@H](O)c1ccn([C@H]2C[C@H](NC(=O)c3cc(-c4ccccc4)on3)C2)n1 | ** (activity ≥200% of VX-809 (1 uM) with compound at 10 uM and VX-809 at 1 uM)
C[C@H](O)c1ccn([C@H]2C[C@H](NC(=O)c3cc(-c4ccccc4)on3)C2)n1 | ** (activity ≥200% of VX-809 (1 uM) with compound at 10 uM and VX-809 at 1 uM)
O=C(NC1CC(n2ccc(CO)n2)C1)c1cc(-c2ccccc2)on1 (centres unmarked) | ** (activity ≥200% of VX-809 (1 uM) with compound at 10 uM and VX-809 at 1 uM)
O=C(N[C@H]1C[C@@H](c2nc(CO)no2)C1)c1cc(-c2ccccc2)on1 | ** (activity ≥200% of VX-809 (1 uM) with compound at 10 uM and VX-809 at 1 uM)
C[C@H](O)c1noc([C@H]2C[C@@H](NC(=O)c3cc(-c4ccccc4)on3)C2)n1 | * (activity 100-200% of VX-809 (1 uM) with compound at 10 uM and VX-809 at 1 uM)
C[C@@H](O)c1noc([C@H]2C[C@@H](NC(=O)c3cc(-c4ccccc4)on3)C2)n1 | * (activity 100-200% of VX-809 (1 uM) with compound at 10 uM and VX-809 at 1 uM)
C[C@@H](O)c1noc(C2CC(NC(=O)c3cc(-c4ccccc4)on3)C2)n1 (some centres unmarked) | ** (activity ≥200% of VX-809 (1 uM) with compound at 10 uM and VX-809 at 1 uM)
C[C@H](O)c1noc(C2CC(NC(=O)c3cc(-c4ccccc4)on3)C2)n1 (some centres unmarked) | ** (activity ≥200% of VX-809 (1 uM) with compound at 10 uM and VX-809 at 1 uM)
C[C@H](O)c1nc([C@H]2C[C@@H](NC(=O)c3cc(-c4ccccc4)on3)C2)no1 | * (activity 100-200% of VX-809 (1 uM) with compound at 10 uM and VX-809 at 1 uM)
C[C@@H](O)c1nc([C@H]2C[C@@H](NC(=O)c3cc(-c4ccccc4)on3)C2)no1 | * (activity 100-200% of VX-809 (1 uM) with compound at 10 uM and VX-809 at 1 uM)

SMILES | Ieq (% VX-809)
O=C(N[C@H]1C[C@H](CCO)C1)c1cc(-c2ccccc2)on1 | ** (activity ≥200% of VX-809 (1 uM) with compound at 10 uM and VX-809 at 1 uM)
O=C(N[C@H]1C[C@@H](CCO)C1)c1cc(-c2ccccc2)on1 | ** (activity ≥200% of VX-809 (1 uM) with compound at 10 uM and VX-809 at 1 uM)
CS(=O)(=O)NC[C@H]1C[C@@H](NC(=O)c2cc(-c3ccccc3)on2)C1 | * (activity 100-200% of VX-809 (1 uM) with compound at 10 uM and VX-809 at 1 uM)
C[C@@H](O)c1nnc(C[C@H]2C[C@@H](NC(=O)c3cc(-c4ccccc4)on3)C2)o1 | ** (activity ≥200% of VX-809 (1 uM) with compound at 10 uM and VX-809 at 1 uM)
C[C@H](O)c1nnc(C[C@H]2C[C@H](NC(=O)c3cc(-c4ccccc4)on3)C2)o1 | ** (activity ≥200% of VX-809 (1 uM) with compound at 10 uM and VX-809 at 1 uM)
C[C@H](O)c1nnc(CC2CC(NC(=O)c3cc(-c4ccccc4)on3)C2)o1 (some centres unmarked) | * (activity 100-200% of VX-809 (1 uM) with compound at 10 uM and VX-809 at 1 uM)
C[C@@H](O)c1nnc(C2CC(NC(=O)c3cc(-c4ccccc4F)on3)C2)o1 (some centres unmarked) | * (activity 100-200% of VX-809 (1 uM) with compound at 10 uM and VX-809 at 1 uM)
C[C@@H](O)c1nnc([C@H]2C[C@@H](NC(=O)c3cc(-c4ccc(F)c(F)c4)on3)C2)o1 | * (activity 100-200% of VX-809 (1 uM) with compound at 10 uM and VX-809 at 1 uM)
C[C@@H](O)c1nnc([C@H]2C[C@@H](NC(=O)c3cc(-c4ccc(F)cc4F)on3)C2)o1 | * (activity 100-200% of VX-809 (1 uM) with compound at 10 uM and VX-809 at 1 uM)
C[C@@H](O)c1nnc([C@H]2C[C@@H](NC(=O)c3cc(-c4ccc(O)cc4)on3)C2)o1 | * (activity 100-200% of VX-809 (1 uM) with compound at 10 uM and VX-809 at 1 uM)
C[C@@H](O)c1nnc([C@H]2C[C@@H](NC(=O)c3cc(-c4ccc(O)c(O)c4)on3)C2)o1 | * (activity 100-200% of VX-809 (1 uM) with compound at 10 uM and VX-809 at 1 uM)
C[C@@H](O)c1nnc([C@H]2C[C@@H](NC(=O)c3cc(-c4cccc(O)c4)on3)C2)o1 | * (activity 100-200% of VX-809 (1 uM) with compound at 10 uM and VX-809 at 1 uM)
C[C@@H](O)c1nnc([C@H]2C[C@@H](NC(=O)c3cc(-c4cccc(F)c4)on3)C2)o1 | * (activity 100-200% of VX-809 (1 uM) with compound at 10 uM and VX-809 at 1 uM)
CC(=O)O[C@H](C)c1nnc([C@H]2C[C@H](NC(=O)c3cc(-c4ccccc4)on3)C2)o1 | ** (activity ≥200% of VX-809 (1 uM) with compound at 10 uM and VX-809 at 1 uM)
C[C@@H](OC(=O)c1ccccc1)c1nnc([C@H]2C[C@H](NC(=O)c3cc(-c4ccccc4)on3)C2)o1 | * (activity 100-200% of VX-809 (1 uM) with compound at 10 uM and VX-809 at 1 uM)
O=C(N[C@H]1C[C@H](c2nnc(C3CCC3)o2)C1)c1cc(-c2ccccc2)on1 | ** (activity ≥200% of VX-809 (1 uM) with compound at 10 uM and VX-809 at 1 uM)
CC(C)CO[C@H](C)c1nnc([C@H]2C[C@H](NC(=O)c3cc(-c4ccccc4)on3)C2)o1 | * (activity 100-200% of VX-809 (1 uM) with compound at 10 uM and VX-809 at 1 uM)
C[C@@H](O)c1nnc(C2CCCC(NC(=O)c3cc(-c4ccccc4)on3)C2)o1 (some centres unmarked) | * (activity 100-200% of VX-809 (1 uM) with compound at 10 uM and VX-809 at 1 uM)
O=C(N[C@H]1CC[C@@H](c2nnc(CO)o2)CC1)c1cc(-c2ccccc2)on1 | * (activity 100-200% of VX-809 (1 uM) with compound at 10 uM and VX-809 at 1 uM)
O=C(NC1CCCC(n2cc(CO)nn2)C1)c1cc(-c2ccccc2)on1 (centres unmarked) | * (activity 100-200% of VX-809 (1 uM) with compound at 10 uM and VX-809 at 1 uM)
